Tests used:
[1] = tested on: A549-ACE2 infected with SARS-CoV-2; experiment: morphology score (similarity to uninfected cells); higher = more like uninfected cells; details: 24 h
[2] = tested on: Caco-2; experiment: relative viability EC50 (midpoint between 100% and the lowest measured viability); higher = less toxic; details: 72 h
[3] = tested on: U2OS; experiment: as above; details: 72 h
[4] = tested on: Vero E6; experiment: as above; details: 72 h
[5] = tested on: HepG2; experiment: as above; details: 72 h
[6] = tested on: A549-ACE2 infected with SARS-CoV-2; experiment: cell count relative to DMSO; higher = less toxic; details: 24 h
[7] = tested on: Caco-2; experiment: cell viability relative to DMSO; higher = less toxic; details: 72 h
[8] = tested on: U2OS; experiment: as above; details: 72 h
[9] = tested on: Vero E6; experiment: as above; details: 72 h
[10] = tested on: Calu-3; experiment: as above; details: 72 h
[11] = tested on: HepG2; experiment: as above; details: 72 h
[12] = tested on: Caco-2; experiment: drug sensitivity score (DSS) for viability; higher = more toxic; extreme values may be limits of the assay; details: 72 h
[13] = tested on: U2OS; experiment: as above; details: 72 h
[14] = tested on: Vero E6; experiment: as above; details: 72 h
[15] = tested on: Calu-3; experiment: as above; details: 72 h
[16] = tested on: HepG2; experiment: as above; details: 72 h
[17] = tested on: A549-ACE2; experiment: drug-induced phospholipidosis relative to tamoxifen; higher = more phospholipidosis
[18] = tested on: A549-ACE2 infected with SARS-CoV-2; experiment: SARS-CoV-2 infection rate relative to DMSO; higher = more infection; details: 24 h

C=CC(=O)Nc1cccc(C)c1Nc1ncc2cc(-c3c(Cl)c(OC)cc(OC)c3Cl)ccc2n1 [BLU9931]
Details	SARS-CoV-2 infection rate, [18] [%]	cell count, [6] [%]	cell viability, [7] [%]	cell viability, [8] [%]	cell viability, [9] [%]	cell viability, [10] [%]	cell viability, [11] [%]	morphology score, [1]
1 nM	–	–	103	101	106	99.4	102	–
10 nM	–	–	105	104	98.8	103	108	–
100 nM	–	–	97	97.4	99.8	97.5	96.3	–
0.3 µM	102	106	–	–	–	–	–	0.15
1000 nM	–	–	96.8	104	97.6	101	90.5	–
3 µM	96	99	–	–	–	–	–	0.3
10 µM	77	75	–	–	–	–	–	0.26
10000 nM	–	–	81	43.8	85.8	53.7	34.2	–
30 µM	65	67	–	–	–	–	–	0.43

Details	drug sensitivity score	relative viability EC50 [nM]
[2]	–	> 10000
[3]	–	3550
[4]	–	> 10000
[5]	–	2020
[12]	0.9	–
[13]	2.7	–
[14]	0.4	–
[15]	2.3	–
[16]	5.2	–

drug-induced phospholipidosis [%], [17]
Details	0.3 µM	0.833333 µM	3.33333 µM	6.66667 µM	10 µM	30 µM
24 h	1.97	0.46	11	14.3	20.1	73.6
48 h	2.96	1.66	13.1	–	–	–
72 h	1.37	-1.51	4.02	–	–	–

CN1C(=O)/C(=C2/C(=O)Nc3ccccc32)c2ccccc21 [meisoindigo]
Details	SARS-CoV-2 infection rate, [18] [%]	cell count, [6] [%]	cell viability, [7] [%]	cell viability, [8] [%]	cell viability, [9] [%]	cell viability, [11] [%]	morphology score, [1]
1 nM	–	–	94.4	98	104	96.1	–
10 nM	–	–	104	102	102	101	–
0.1 µM	103	101	–	–	–	–	-0.25
100 nM	–	–	93.1	97.4	98.8	90.6	–
0.3 µM	103	102	–	–	–	–	-0.21
1 µM	102	98	–	–	–	–	-0.24
1000 nM	–	–	87.2	99	93.7	75.5	–
3 µM	97	101	–	–	–	–	-0.12
10000 nM	–	–	73.1	90.1	47.7	49	–

Details	drug sensitivity score	relative viability EC50 [nM]
[3]	–	> 10000
[4]	–	2180
[5]	–	868
[12]	2.2	–
[13]	0	–
[14]	3.8	–
[16]	5.6	–

drug-induced phospholipidosis [%], [17]
Details	0.3 µM	0.833333 µM	3.33333 µM	6.66667 µM	10 µM	30 µM
24 h	-2.39	-5.22	-2.5	-1.79	–	6.15
48 h	-0.22	-2.93	-2.52	0.92	–	4.45
72 h	0.716	-2.02	-1.09	1.04	9.76	5.86

Reference: the supplement of paper PMC13380429
